Source: patent US10487110B2, “Stabilized compounds having secondary structure motifs” (President and Fellows of Harvard College, priority 1999, dated 2019)
Bridge positions count the residues as written; N and C are the ends. Square brackets hold non-standard residues; d marks the D form. R‑13 = (R)-2-(2'-pentenyl)alanine; R‑14 = (R)-2-(2′-hexenyl)alanine; S‑14 = (S)-2-(2′-hexenyl)alanine; S‑16 = (S)-2-(2′-octenyl)alanine

Columns and labels:
trypsin = test: Peptide trypsin digest (cleavage rate constants); format: in vitro ADME; conditions: 10% EtOH in 50 mM Tris pH 8.3, room temperature; for Cleavage rate constant, Unmetathesized: unmetathesized peptide; for Cleavage rate constant, Metathesized and hydrogenated: metathesized and hydrogenated peptide
Experimental: Peptide trypsin digest: A typical peptide trypsin digest experiment was performed by adding 5 μL of a 20× trypsin solution in 1 mM HCl to a 100 μL solution of peptide at 9 μM in 10% EtOH in 50 mM Tris at pH 8.3. The reaction was allowed to proceed at room temperature for 30 min at which time it was quenched by adding 100 μL of a 1% trifluoroacetic acid solution and frozen on dry ice. The sample was then thawed and injected into a reverse phase HPLC on a C18 column for quantitation at 280 nm. The cleavage rate constants were obtained by performing the digest experiments at multiple trypsin concentrations and fitting to a kinetic model that is first order in both enzyme and substrate concentration.

[1] = Circular dichroism measure of helical content; format: physicochemical
Experimental: Circular dichroism: Circular dichroism spectra were collected on a Jasco J-710 spectropolarimeter at 4° C. A typical sample was prepared by lyophilizing a measured volume of peptide solution and then resuspending it in 3 ml of 0.1% TFA in water to obtain a solution with a 280 nm absorbance of approximately 0.06 absorbance units. The sample was placed in a 1 cm CD cuvette and the ultraviolet absorbance was measured. The circular dichroism spectrum was measured and a baseline CD spectrum of 0.1% TFA in water was subtracted from it. The baseline subtracted CD spectrum was then normalized using the 280 nm absorbance.

[2] = Sedimentation equilibrium (analytical centrifugation); format: physicochemical; conditions: conditions of the circular dichroism experiments, 4° C.
Experimental: Analytical centrifugation: Sedimentation Equilibrium Experiments were performed on a Beckman Optima XL-A analytical centrifuge. The samples were centrifuged at 35,000 RPM at 4° C. and monitored at 280 nm. The data was fit to a single species model. The sedimentation equilibrium experiments were run on the identical samples from which circular dichroism spectra were recorded.

[3] = crosslinked versus corresponding uncrosslinked modified peptide

Substance: Ac-EWAETAAAKFLAAHA-NH2 [Control, reference compound]
- Cleavage rate constant, Unmetathesized (trypsin): 2.39 M⁻¹ s⁻¹
- Cleavage rate constant, Unmetathesized (trypsin; listed as unmodified control peptide): 2.38 M⁻¹ s⁻¹
- helical content (α-helicity) ([1]; circular dichroism, water containing 0.1% trifluoroacetic acid, 4° C.): ~40%

Substance: Ri,i+7S(11): Ac-EWAEyAAAKFLzAHA-NH2 (SEQ ID NO: 2), (y,z) = (R-13,S-16), 11 carbon crosslink (Ac-EWAE[R‑13]AAAKFL[S‑16]AHA-NH2; staple 5-12)
- oligomeric state by sedimentation equilibrium [2]: monomeric
- Cleavage rate constant, Metathesized and hydrogenated (trypsin): 0.058 M⁻¹ s⁻¹
- Cleavage rate constant, Unmetathesized (trypsin): 0.50 M⁻¹ s⁻¹
- helix stabilization (result in words) ([1]; circular dichroism): best helix stabilizer
- increase of helical content following RCM ([1]; crosslinked versus corresponding uncrosslinked modified peptide, for Ri,i+7S(12) cis and trans double bond isomers): 26%
- increase of helical structure compared to unmodified control peptide ([1]; versus unmodified control peptide): 44%

Substance: Ri,i+7S(12): Ac-EWAEyAAAKFLzAHA-NH2 (SEQ ID NO: 2), (y,z) = (R-14,S-16), 12 carbon crosslink; cis and trans isomers (Ac-EWAE[R‑14]AAAKFL[S‑16]AHA-NH2; staple 5-12; also: cis and trans olefin isomers)
- Cleavage rate constant, Metathesized and hydrogenated (trypsin): 0.12 M⁻¹ s⁻¹

Substance: Ri,i+7S(10): Ac-EWAEyAAAKFLzAHA-NH2 (SEQ ID NO: 2), (y,z) = (R-14,S-14), 10 carbon crosslink (Ac-EWAE[R‑14]AAAKFL[S‑14]AHA-NH2; staple 5-12)
- Cleavage rate constant, Metathesized and hydrogenated (trypsin): 0.34 M⁻¹ s⁻¹
- decrease of helical content following RCM [1, 3]: 12%

Substance: Ri,i+7S(9): Ac-EWAEyAAAKFLzAHA-NH2 (SEQ ID NO: 2), (y,z) = (R-13,S-14), 9 carbon crosslink (Ac-EWAE[R‑13]AAAKFL[S‑14]AHA-NH2; staple 5-12)
- Cleavage rate constant, Metathesized and hydrogenated (trypsin): 0.37 M⁻¹ s⁻¹
- decrease of helical content following RCM [1, 3]: 21%
